Laboratory results as given in patent EP0183129A1, “Quinolonecarboxylic acid derivatives” (KYORIN PHARMACEUTICAL CO., LTD., priority 1984, dated 1986).
Converted amounts (≈) assume the structure as drawn. Counter-ions that a name gives are not always drawn. Like-named read-outs stand apart in the source and are kept apart here.

Assays:
Shigella sonnei IID 969 = experiment: In vitro antibacterial activity, MIC (standard strain); format: cell-based; settings: IID969, 10^6 cells/ml
Protocol: Experiment-1 In vitro antibacterial activity
The in vitro antibacterial activity against gram-positive and gram-negative bacteria has been investivated.
The minimum inhibitory concentration (MIC) was determined in accordance with the method recommended by Japan Society of Chemotherapy.

S. faecalis 49 = experiment: In vitro antibacterial activity, MIC (clinical isolates); format: cell-based; settings: Enterococcus faecalis; S. faecalis 49; 10^6 cells/ml; clinical isolate; read-out: MIC
[1] = system: Bacillus subtilis PCI 219; experiment: In vitro antibacterial activity, MIC (standard strain); format: cell-based; settings: PCI219
S. pneumoniae IID 552 = experiment: as above; format: cell-based; settings: Streptococcus pneumoniae, IID552; S. pneumoniae IID 552; 10^6 cells/ml; standard strain; read-out: MIC
S. agalactiae 4394 = experiment: In vitro antibacterial activity, MIC (clinical isolates); format: cell-based; settings: Streptococcus agalactiae; S. agalactiae 4394; 10^6 cells/ml; clinical isolate; read-out: MIC
S. faecalis 401 = experiment: as above; format: cell-based; settings: Enterococcus faecalis; S. faecalis 401; 10^6 cells/ml; clinical isolate; read-out: MIC
[2] = system: S. aureus IID 670 (Terajima); experiment: In vitro antibacterial activity, MIC (standard strain); format: cell-based, Staphylococcus aureus; settings: Staphylococcus aureus, IID670, S. aureus IID 670 (Terajima); 10^6 cells/ml; standard strain; read-out: MIC
P. aeruginosa IID 1210 = experiment: as above; format: cell-based; settings: Pseudomonas aeruginosa, IID1210; P. aeruginosa IID 1210; 10^6 cells/ml; standard strain; read-out: MIC
S. epidermidis IID 866 = experiment: as above; format: cell-based; settings: Staphylococcus epidermidis, IID866, S. epidermidis IID 866; 10^6 cells/ml; standard strain; read-out: MIC
E. coli ML4707 = experiment: In vivo antibacterial activity against systemic infection in mice; design: species or system mice (ICR-S); settings: for ED50: Escherichia coli, ML4707, mice (ICR-S), oral, an hour after intraperitoneal infection, challenge dose 2.7 x 10^6 ~ 8.8 x 10^6 cfu/mouse, read-out: ED50 E. coli ML4707; for activity against gram-negative bacterial infections compared with the reference compounds: systemic infection in mice, result in words
Protocol: (§1) Experiment-2 In vivo antibacterial activity against systemic infection in mice (ICR-S)
(§2) The infections were produced by intraperitoneal injection of a suspension of the bacterial culture corresponding to the germ studied. The products were administered orally at an hour after the infection.

S. pneumoniae S-4288 = experiment: as above; design: species or system mice (ICR-S); settings: Streptococcus pneumoniae, S4288; mice (ICR-S); oral, an hour after intraperitoneal infection; challenge dose 7.5 x 10^4 ~ 4.8 x 10^6 cfu/mouse; read-out: ED50 S. pneumoniae S-4288
Protocol: as §1, §2

S. aureus Smith [3] = experiment: as above; design: species or system mice (ICR-S); settings: Staphylococcus aureus, po, mice (ICR-S), an hour after intraperitoneal infection
Protocol: as §1, §2

S. faecalis IID 682 = experiment: In vitro antibacterial activity, MIC (standard strain); format: cell-based; settings: Enterococcus faecalis, IID682; S. faecalis IID 682; 10^6 cells/ml; standard strain; read-out: MIC
S. pneumoniae 28 = experiment: In vitro antibacterial activity, MIC (clinical isolates); format: cell-based; settings: Streptococcus pneumoniae, 10^6 cells/ml, clinical isolate
S. faecalis 214 = experiment: as above; format: cell-based; settings: Enterococcus faecalis; S. faecalis 214; 10^6 cells/ml; clinical isolate; read-out: MIC
S. agalactiae 4468 = experiment: as above; format: cell-based; settings: Streptococcus agalactiae; S. agalactiae 4468; 10^6 cells/ml; clinical isolate; read-out: MIC
C. ramosum = experiment: In vitro antibacterial activity, MIC (standard strain); format: cell-based; settings: Thomasclavelia ramosa; C. ramosum; 10^6 cells/ml; standard strain; read-out: MIC
[4] = system: Klebsiella pneumoniae KY(GN)6445; experiment: as above; format: cell-based; settings: Klebsiella pneumoniae KY(GN)6445; 10^6 cells/ml; standard strain; read-out: MIC
S. pyogenes 4372 = experiment: In vitro antibacterial activity, MIC (clinical isolates); format: cell-based; settings: Streptococcus pyogenes; S. pyogenes 4372; 10^6 cells/ml; clinical isolate; read-out: MIC
[5] = system: Bacteroides fragilis GM 7000; experiment: In vitro antibacterial activity, MIC (standard strain); format: cell-based; settings: GM7000; Bacteroides fragilis GM 7000; 10^6 cells/ml; standard strain; read-out: MIC
S. pyogenes 3107 = experiment: In vitro antibacterial activity, MIC (clinical isolates); format: cell-based; settings: Streptococcus pyogenes; S. pyogenes 3107; 10^6 cells/ml; clinical isolate; read-out: MIC
[6] = system: Salmonella entritidis IID 604; experiment: In vitro antibacterial activity, MIC (standard strain); format: cell-based; settings: IID604; Salmonella entritidis IID 604; 10^6 cells/ml; standard strain; read-out: MIC
[7] = system: Pseudomonas aeruginosa V-1; experiment: as above; format: cell-based; settings: V1; Pseudomonas aeruginosa V-1; 10^6 cells/ml; standard strain; read-out: MIC
S. aureus Smith [8] = experiment: as above; format: cell-based, Staphylococcus aureus
B. fragilis 25285 = experiment: as above; format: cell-based, Bacteroides fragilis; settings: Bacteroides fragilis, 25285, B. fragilis 25285; 10^6 cells/ml; standard strain; read-out: MIC
[9] = system: Fusobacterium varium KYA 8501; experiment: as above; format: cell-based; settings: Fusobacterium varium, KYA8501, Fusobacterium varium KYA 8501; 10^6 cells/ml; standard strain; read-out: MIC
[10] = system: Enterobacter cloacae IID 977; experiment: as above; format: cell-based; settings: Enterobacter cloacae, IID977, Enterobacter cloacae IID 977; 10^6 cells/ml; standard strain; read-out: MIC
C. difficile I-E = experiment: as above; format: cell-based; settings: Clostridioides difficile; C. difficile I-E; 10^6 cells/ml; standard strain; read-out: MIC
[11] = Bacillus subtilis PCI 219, 10^6 cells/ml, standard strain, read-out: MIC
[12] = challenge dose 6.0 x 10^5 cfu/mouse, read-out: ED50 S. aureus Smith
[13] = Staphylococcus aureus, S. aureus Smith, 10^6 cells/ml, standard strain, read-out: MIC

Structure (SMILES)	MIC (Shigella sonnei IID 969) [µg/mL]	MIC (S. faecalis 49) [µg/mL]	MIC (S. pneumoniae IID 552) [µg/mL]	MIC (S. agalactiae 4394) [µg/mL]	MIC (S. faecalis 401) [µg/mL]	MIC [2] [µg/mL]	MIC (P. aeruginosa IID 1210) [µg/mL]	MIC (S. epidermidis IID 866) [µg/mL]	ED50 (E. coli ML4707) [mg/kg]	ED50 (S. pneumoniae S-4288) [mg/kg]	ED50 (S. aureus Smith [3]; [12]) [mg/kg]	MIC (S. faecalis IID 682) [µg/mL]	MIC (S. pneumoniae 28) [µg/mL]	MIC (S. faecalis 214) [µg/mL]	MIC (S. agalactiae 4468) [µg/mL]	MIC (C. ramosum) [µg/mL]	MIC [4] [µg/mL]	MIC (S. pyogenes 4372) [µg/mL]	MIC [5] [µg/mL]	MIC (S. pyogenes 3107) [µg/mL]	other results
CCNCC1CCN(c2c(F)cc3c(=O)c(C(=O)O)cn(C4CC4)c3c2Cl)C1 (stereo not drawn) [Example 13, 8-Chloro-l-cyclorpropyl-6-fluoro-1,4-dihydro-7-(3-ethylaminomethyl-l-pyrrolidinyl)-4-oxo-3-quinolinecarboxylic acid]	0.025 (≈ 0.0613 µM)	0.05 (≈ 0.123 µM)	0.05 (≈ 0.123 µM)	0.1 (≈ 0.245 µM)	0.1 (≈ 0.245 µM)	0.025 (≈ 0.0613 µM)	1.56 (≈ 3.82 µM)	0.025 (≈ 0.0613 µM)	0.7	2	0.6	0.05 (≈ 0.123 µM)	0.05 (≈ 0.123 µM)	0.1 (≈ 0.245 µM)	0.05 (≈ 0.123 µM)	0.2 (≈ 0.49 µM)	0.05 (≈ 0.123 µM)	0.05 (≈ 0.123 µM)	0.1 (≈ 0.245 µM)	0.05 (≈ 0.123 µM)	MIC [1, 11]: 0.0125 µg/mL (≈ 0.0306 µM); activity against gram-negative bacterial infections compared with the reference compounds (E. coli ML4707): greater activity against gram-negative bacterial infections than the reference compounds; MIC [6]: 0.05 µg/mL (≈ 0.123 µM); MIC [7]: 0.78 µg/mL (≈ 1.91 µM); MIC (S. aureus Smith [8]; [13]): 0.025 µg/mL (≈ 0.0613 µM); MIC (B. fragilis 25285): 0.05 µg/mL (≈ 0.123 µM); MIC [9]: 0.39 µg/mL (≈ 0.956 µM); MIC [10]: 0.1 µg/mL (≈ 0.245 µM)
CCNCC1CCN(c2c(F)cc3c(=O)c(C(=O)O)cn(C4CC4)c3c2F)C1 (stereo not drawn) [Example 2, l-Cyclopropyl-7-(3-ethylaminomethyl-l-pyrrolidinyl)-6,8-difluoro-l,4-dihydro-4-oxo-3-quinolinecarboxylic acid hydrochloride]	0.025	0.2	0.1	0.2	0.2	0.025	3.13	0.05	0.8	4.6	0.9	0.2	0.05	0.2	0.1	0.78	0.05	0.1	1.56	0.05	MIC [1, 11]: 0.0125 µg/mL; activity against gram-negative bacterial infections compared with the reference compounds (E. coli ML4707): greater activity against gram-negative bacterial infections than the reference compounds; ED50 (S. aureus Smith [3]; challenge dose 5.5 x 10^5 cfu/mouse, n=5, read-out: ED50 against S. aureus Smith): 0.97 mg/kg; MIC [6]: 0.05 µg/mL; MIC [7]: 0.78 µg/mL; MIC (S. aureus Smith [8]; MIC column of Table 3-1, beside ED50 against S. aureus Smith): 0.025 µg/mL; MIC (S. aureus Smith [8]; [13]): 0.025 µg/mL; MIC (C. difficile I-E): 0.78 µg/mL; MIC (B. fragilis 25285): 0.78 µg/mL; MIC [9]: 1.56 µg/mL; MIC [10]: 0.1 µg/mL
CNCC1CCN(c2c(F)cc3c(=O)c(C(=O)O)cn(C4CC4)c3c2Cl)C1 (stereo not drawn) [Example 12, 8-Chloro-l-cyclopropyl-6-fluoro-1,4-dihydro-7-(3-methylaminomethyl-1-pyrrolidinyl)-4-oxo-3-quinolinecarboxylic acid hydrochloride]	0.025	0.05	0.05	0.1	0.1	0.025	1.56	0.025	1.9	6.5	0.5	0.05	0.05	0.1	0.05	0.39	0.05	0.05	0.2	0.05	MIC [1, 11]: 0.0125 µg/mL; MIC [6]: 0.05 µg/mL; MIC [7]: 0.39 µg/mL; MIC (S. aureus Smith [8]; [13]): 0.025 µg/mL; MIC (B. fragilis 25285): 0.1 µg/mL; MIC [9]: 0.39 µg/mL; MIC [10]: 0.05 µg/mL
CNCC1CCN(c2c(F)cc3c(=O)c(C(=O)O)cn(C4CC4)c3c2F)C1 (stereo not drawn) [Example 8, 1-Cyclopropyl-6,8-difluoro-1,4-dihydro-7-(3-methylaminomethyl-l-pyrrolidinyl)-4-oxo-3-quinolinecarboxylic acid hydrochloride]	0.0125	0.1	0.05	0.1	0.1	0.025	1.56	0.025	1.9	16.1	1.1	0.1	0.05	0.05	0.1	0.78	0.025	0.05	0.78	0.05	MIC ([1]; Bacillus subtilis): 0.0125 µg/mL; MIC [6]: 0.05 µg/mL; MIC [7]: 0.78 µg/mL; MIC (S. aureus Smith [8]; [13]): 0.025 µg/mL; MIC (C. difficile I-E): 1.56 µg/mL; MIC (B. fragilis 25285): 0.39 µg/mL; MIC [9]: 0.78 µg/mL; MIC [10]: 0.1 µg/mL
